Experimental data as given in PubChem BioAssay (NCI).
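Step 1: Grow cells in 96-well plates. Step 2: Expose to compound for 48 hours at 5 concentrations. Step 3: Interpolate endpoints linearly; if unreached, use highest concentration. At the GI50, growth is halved. At the TGI there is no net growth.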

Tests used:
Test in all cases: NCI tumour cell line growth inhibition, 48 h
A549 NSCLC = system: A549 NSCLC
EKVX NSCLC = system: EKVX NSCLC
PC-3 prostate = system: PC-3 prostate
RPMI-8226 leukemia = system: RPMI-8226 leukemia
CAKI-1 renal = system: CAKI-1 renal
786-0 renal = system: 786-0 renal
MOLT-4 leukemia = system: MOLT-4 leukemia
SK-OV-3 ovarian = system: SK-OV-3 ovarian
UACC-62 melanoma = system: UACC-62 melanoma
HCT-15 colon = system: HCT-15 colon
NCI-H23 lung = system: NCI-H23 lung
DU-145 prostate = system: DU-145 prostate
HL-60(TB) leukemia = system: HL-60(TB) leukemia
HCT-116 colon = system: HCT-116 colon
SK-MEL-5 melanoma = system: SK-MEL-5 melanoma
OVCAR-8 ovarian = system: OVCAR-8 ovarian
BT-549 breast = system: BT-549 breast
SF-295 CNS = system: SF-295 CNS
SF-539 CNS = system: SF-539 CNS
UACC-257 melanoma = system: UACC-257 melanoma
M14 melanoma = system: M14 melanoma
RXF 393 renal = system: RXF 393 renal
SK-MEL-2 melanoma = system: SK-MEL-2 melanoma
HS 578T breast = system: HS 578T breast
NCI-H460 lung = system: NCI-H460 lung
SR leukemia = system: SR leukemia
HOP-92 NSCLC = system: HOP-92 NSCLC
CCRF-CEM leukemia = system: CCRF-CEM leukemia

SMILES: c1ccc(CC(Cc2ccccc2)C2=NCCCN2)cc1
- GI50 (A549 NSCLC): 3.42 µM
- TGI (A549 NSCLC): > 100 µM
- GI50 (EKVX NSCLC): 6.96 µM
- TGI (EKVX NSCLC): > 100 µM
- GI50 (PC-3 prostate): 3.87 µM
- TGI (PC-3 prostate): > 100 µM
- GI50 (RPMI-8226 leukemia): 3.62 µM
- TGI (RPMI-8226 leukemia): 42.3 µM
- GI50 (CAKI-1 renal): 6.39 µM
- TGI (CAKI-1 renal): > 100 µM
- GI50 (786-0 renal): 4.26 µM
- TGI (786-0 renal): > 100 µM
- GI50 (MOLT-4 leukemia): 3.56 µM
- TGI (MOLT-4 leukemia): 23.2 µM
- GI50 (SK-OV-3 ovarian): 2.1 µM
- TGI (SK-OV-3 ovarian): 6.44 µM
- GI50 (UACC-62 melanoma): 4.22 µM
- TGI (UACC-62 melanoma): > 100 µM
- GI50 (HCT-15 colon): 3.44 µM
- TGI (HCT-15 colon): > 100 µM
- GI50 (NCI-H23 lung): 3.48 µM
- TGI (NCI-H23 lung): > 100 µM
- GI50 (DU-145 prostate): 3.36 µM
- TGI (DU-145 prostate): 9.75 µM
- GI50 (HL-60(TB) leukemia): 2.38 µM
- TGI (HL-60(TB) leukemia): 6.41 µM
- GI50 (HCT-116 colon): 3.71 µM
- TGI (HCT-116 colon): 17.3 µM
- GI50 (SK-MEL-5 melanoma): 2.73 µM
- TGI (SK-MEL-5 melanoma): 9.52 µM
- GI50 (OVCAR-8 ovarian): 3.21 µM
- TGI (OVCAR-8 ovarian): > 100 µM
- GI50 (BT-549 breast): 3.77 µM
- TGI (BT-549 breast): 70.9 µM
- GI50 (SF-295 CNS): 3.32 µM
- TGI (SF-295 CNS): > 100 µM
- GI50 (SF-539 CNS): 3.37 µM
- TGI (SF-539 CNS): > 100 µM
- GI50 (UACC-257 melanoma): 17 µM
- TGI (UACC-257 melanoma): > 100 µM
- GI50 (M14 melanoma): 3.17 µM
- TGI (M14 melanoma): > 100 µM
- GI50 (RXF 393 renal): 2.82 µM
- TGI (RXF 393 renal): > 100 µM
- GI50 (SK-MEL-2 melanoma): 2.66 µM
- TGI (SK-MEL-2 melanoma): 7.91 µM
- GI50 (HS 578T breast): 4.07 µM
- TGI (HS 578T breast): > 100 µM
- GI50 (NCI-H460 lung): 3.36 µM
- TGI (NCI-H460 lung): 21.9 µM
- GI50 (SR leukemia): 3.78 µM
- TGI (SR leukemia): > 100 µM
- GI50 (HOP-92 NSCLC): 4.52 µM
- TGI (HOP-92 NSCLC): 64.6 µM
- GI50 (CCRF-CEM leukemia): 3.12 µM
